Measurements reported in publication PMC5530816, “Anticancer metallohelices: nanomolar potency and high selectivity” (Chemical Science, 2015).

Assays:
Format in all cases: cell-based
[1] = test system: methicillin-resistant Staphylococcus aureus, USA300 JE2; assay: MIC by broth dilution, MRSA; settings: 20 h at 37 °C in Müller–Hinton broth
Method: (§1) The compounds were screened against cultures of the gram-positive bacterium methicillin-resistant Staphylococcus aureus, USA300 JE2 ([ref. 28 and 29]) (MRSA) and the gram-negative Escherichia coli, TOP10 (E. coli).[30] Kanamycin[30] was used as a positive control.
(§2) MIC values were established using a […] broth dilution method in cation-adjusted Müller–Hinton (MH) broth. 96-well plates (200 μL of 128 μg mL^–1, 64 μM) complex in MH broth, diluted 2^n μg mL^–1, inoculated with each bacterial strain (10^3 cfu mL^–1) were sealed and growth was monitored over 20 h at 37 °C with an iEMS 96-well plate reader (see ESI ^†).

Escherichia coli, TOP10 = assay: MIC by broth dilution, E. coli; settings: 20 h at 37 °C in Müller–Hinton broth
Method: as §1, §2

[2] = test system: MDA-MB-468 (human epithelial breast adenocarcinoma); assay: MTT chemosensitivity (IC50), MDA-MB-468 cells; settings: 96 h exposure, triplicate, mean with standard deviation (esd)
Description: (§3) The activities of the new compounds and cisplatin were investigated in human tumour cell lines: (a) MDA-MB-468 (human epithelial breast adenocarcinoma);[24] (b) HCT116 p53^+/+ and (c) HCT116 p53^–/–.[25] The HCT116 p53^+/+ and HCT116 p53^–/– cancer cells are human colorectal cancer cell lines that are genetically identical (isogenic) except for the presence or absence of functional p53.[25] These were chosen to enable screening of the effects of p53 status as the loss of p53 function is common genetic event in patient tumours and is strongly associated with increased resistance to many conventional chemotherapeutic agents.[25],[26]
(§4) Compounds were added (100 μM to 5 nM in cell medium) for a further 96 h. 3-(4,5-Dimethylthiazol-[…])-2,5-diphenyl tetrazolium bromide solution (0.5 mg mL^–1, 20 μL per well) was added for a final 4 h. Upon completion all solutions were aspirated, dimethyl sulfoxide (150 μl) was added and absorbance (540 nm) was recorded with a Thermo Scientific Multiskan EX microplate photometer. […]
(§5) 0 ×10 3 c el l s / wel l and i nc u bat ed f or24 hat 37 ° C i n an at mos p h er e of5% C O2, p r i ort o d r u gexp os u r e. […]
(§6) C ell med ia (20 0 μ l) was ad d ed to the referenc e c ells and d iffering c onc entrations of d ru g s olu tion (20 0 μ l) were ad d ed to the remaining wells . […]

[3] = test system: HCT116 p53^+/+ (human colon carcinoma, wild type p53); assay: MTT chemosensitivity (IC50), HCT116 p53+/+ cells; settings: 96 h exposure, triplicate, mean with standard deviation (esd)
Description: as §3, §4, §5, §6

[4] = test system: HCT116 p53^–/– (human colon carcinoma, p53-null); assay: MTT chemosensitivity (IC50), HCT116 p53-/- cells; settings: 96 h exposure, triplicate, mean with standard deviation (esd)
Description: as §3, §4, §5, §6

[5] = approximate concentration in μM

Row | MRSA MIC [1] | MRSA MIC [1, 5] | E. coli MIC (Escherichia coli, TOP10) | E. coli MIC (Escherichia coli, TOP10; [5]) | Compound | IC50 [2] | IC50 [3] | IC50 [4]
1 | 1 μg ml^–1 | 2 µM | 2 μg ml^–1 | 4 µM | NC[C@H]1O[C@H](O[C@H]2[C@H](O)[C@@H](O[C@H]3O[C@H](CO)[C@@H](O)[C@H](N)[C@H]3O)[C@H](N)C[C@@H]2N)[C@H](O)[C@@H](O)[C@@H]1O [Kanamycin] | – | – | –
2 | – | – | – | – | N.N.[Cl][Pt][Cl] [cisplatin] | 2.5 ± 0.5 µM | 3.5 ± 1.5 µM | 8.1 ± 1.8 µM
